Laboratory results reported in patent US20230330060A1, “COMPOUNDS FOR TREATMENT OF HEART FAILURE” (Sulfateq B.V., priority 2020, published 2023).

Columns and labels:
[1] = test system: doxorubicin-induced heart failure; assay: Cardiac ATP/ADP ratio (HPLC); type: in vivo, rat; conditions: doxorubicin rats; prophylactic or therapeutic administration of SUL-150
Protocol: SUL-150 (250 mg) was dissolved in 100% EtOH (1.02 ml) and further diluted in distilled water (68.7 ml) to obtain a clear 10 mM solution. The SUL-150 solution was sprayed homogeneously over standard food pellets (1.25 kg). Food pellets were air-dried overnight. Food pellets were freshly prepared weekly. With the approximation of 200 mg·kg^−1 SUL-150 in the food pellets and a daily dietary intake of 25 gram for a 350 gram rat, daily dosing of SUL-150 approximates 5 mg·day^−1.
Male outbred Wistar rats of 250-300 grams (10-12 weeks old) were kept on a 12 h light/dark cycle and received a standard diet with distilled water ad libitum. Thirty rats were administered with doxorubicin (2 mg·kg^−1) weekly via intraperitoneal injection for 9 consecutive weeks and were left either untreated (standard chow diet, 10 rats), or received a diet supplemented with SUL-150 as prophylaxis (prior to the 1st doxorubicin administration, 10 rats) or therapy (starting after the 6th doxorubicin administration, 10 rats). […]
Cardiac tissue samples were homogenized in Tris-saturated phenol (pH 7.4) using a TissueRuptor II (Qiagen, Hilden, Germany) to extract adenosines and separated over chloroform:water (1:1 v/v) by centrifugation. […] The eluted nucleotides were detected at a wavelength of 260 nm. Nucleotide concentration of the eluate was calculated using calibration curves for each standard nucleotide peak area. […]

[2] = test system: doxorubicin-induced heart failure; assay: Cardiac fibrosis (picrosirius red, left-ventricular interstitial fibrosis); type: in vivo, rat; conditions: doxorubicin rats; SUL-150 via food pellets, prophylaxis or therapeutic group
Protocol: The SUL-150 solution was sprayed homogeneously over standard food pellets (1.25 kg). […] Food pellets were freshly prepared weekly. With the approximation of 200 mg·kg^-1 SUL-150 in the food pellets and a daily dietary intake of 25 gram for a 350 gram rat, daily dosing of SUL-150 approximates 5 mg·day^-1. Male outbred Wistar rats of 250-300 grams (10-12 weeks old) were kept on a 12 h light/dark cycle and received a standard diet with distilled water ad libitum. Thirty rats were administered with doxorubicin (2 mg·kg^-1) weekly via intraperitoneal injection for 9 consecutive weeks and were left either untreated (standard chow diet, 10 rats), or received a diet supplemented with SUL-150 as prophylaxis (prior to the 1st doxorubicin administration, 10 rats) or therapy (starting after the 6th doxorubicin administration, 10 rats). Sham control rats (8 rats) were administered with saline weekly via intraperitoneal injection for 9 consecutive weeks and received a standard diet. All rats were subjected to cardiac function assessment 12 weeks after the first doxorubicin administration. […] Samples were imaged on a NanoZoomer S60 Digital slide scanner (Hammamatsu Photonics) and left-ventricular interstitial fibrosis (i.e. non-perivascular fibrosis) was quantified using Aperio ImageScope (Leica Biosystems, Nussloch, Germany).

## Cc1c(C)c2c(c(C)c1O)CC[C@](C)(C(=O)N1CCNCC1)O2 [SUL-150, (R)-(6-hydroxy-2,5,7,8-tetramethylchroman-2-yl)(piperazin-1-yl)methanone]
[1]
  Doxorubicin-induced reduction of cardiac ATP content (normalized for ADP), FIG. 6A: mitigated
[2]
  Fibrogenic response in the left ventricle interstitium (collagen deposition), FIG. 4: blocks this fibrogenic reaction
